Laboratory results reported in US5663174A, “Aromatic sulfonamide derivatives, their use as enzyme inhibitors and pharmaceutical compositions containing them” (Pharno-Wedropharm GmbH, priority 1997, dated 1997).
Read-outs that look alike come from different tables or passages of the source.

Molecular target: T1, bovine pancreatic PLA2 (Bos taurus, UniProt P00593)
T1 construct: from tissue; host or cells: bovine pancreas
Test: Phospholipase A2 (PLA2) activity, enzyme assay
Type: biochemical
Method: Phospholipase A2 (PLA2) activity was measured using bovine pancreatic PLA2 as the enzyme and a sonicated dispersion of 1-stearoyl-2-[C^14 ]-arachidonyl-phosphatidylcholine (56 mCi/mmol) as the substrate in the following manner: 60 ng bovine pancreatic PLA2 was mixed and incubated with buffer and inhibitors (100 mM Tris, pH 8; 100 mM CaCl2; 20 mM EDTA, pH 8) at 37° C. for 10 min. to allow interaction between the enzyme and the drugs. The substrate (38 nCi) in buffer and 0.3% cholate was added to initiate the reaction which continued for 20 min. at 37° C. The total reaction volume was 0.1 ml. The reaction was stopped by adding 0.1 ml of an ice cold EtOH/HOAc 98:2 mixture. Released arachidonic acid was separated from the unreacted substrate via thin layer chromatography on silica gel (solvent system CHCl3 /MeOH/H2 O 14:6:1). The radioactivity of the two spots was quantified using a bioscanner.
Inhibitors were dissolved in buffer^13 and tested in duplicate within each experiment, and each inhibitor was tested in at least two experiments. When necessary, inhibitors were dissolved in DMSO^14. The % inhibition at a given concentration was combined for several experiments and the IC50 determined from a semilog plot of % inhibition vs concentration. Under the condition described the rate of hydrolysis was 20-25% of the substrate being hydrolyzed in absence of inhibitors.
^13 0.01 ml inhibitor solution were used in these experiments.
^14 0.005 ml inhibitor solution were used in these experiments (=5 vol %).

[1] = Table 20, from semilog plot of % inhibition vs concentration, substrate 1-stearoyl-2-[C^14]-arachidonyl-phosphatidylcholine, 37° C., pH 8, 20 min
[2] = Table 20, from semilog plot of % inhibition vs concentration, substrate 1-stearoyl-2-[C^14]-arachidonyl-phosphatidylcholine, 37° C., pH 8, 20 min, read-out: IC50

T1 sequence (P00593 23-145): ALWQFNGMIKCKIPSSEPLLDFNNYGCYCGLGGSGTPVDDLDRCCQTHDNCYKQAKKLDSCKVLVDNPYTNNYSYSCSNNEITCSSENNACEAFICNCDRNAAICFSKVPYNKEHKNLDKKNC

Row | Compound | IC50 [2] [µM] | also measured
1 | O=C([C@H](Cc1ccccc1)NS(=O)(=O)c1ccccc1)N1CCNCC1 [Compound 1, N-benzenesulfonyl-L-phenylalanine piperazineamide] | – | IC50 [1]: promotion
2 | C[C@H](NS(=O)(=O)c1ccccc1)C(=O)N1CCNCC1 [Compound 2, N-benzenesulfonyl-L-alanine piperazineamide] | – | IC50 [1]: promotion
3 | O=C(Nc1ccc(-c2ccccc2)cc1)[C@H](Cc1ccccc1)NS(=O)(=O)c1ccccc1 [Compound 7, N-benzenesulfonyl-L-phenylalanine biphenylamide] | 310 | –
4 | O=C(Nc1ccc(-c2ccccc2)cc1)[C@@H]1CCCN1S(=O)(=O)c1ccccc1 [Compound 10, N-benzenesulfonyl-L-proline biphenylamide] | 520 | –
5 | O=C(Nc1ccc(-c2ccccc2)cc1)[C@H](Cc1c[nH]c2ccccc12)NS(=O)(=O)c1ccccc1 [Compound 11, N-benzenesulfonyl-L-tryptophane biphenylamide] | 570 | –
6 | O=C([C@H](Cc1ccccc1)NS(=O)(=O)c1cccc2c(Cl)cccc12)N1CCNCC1 [Compound 21, N-(5-chloro-1-naphthalenesulfonyl)-L-phenylalanine piperazineamide] | 600 | –
7 | CC(C)[C@H](NS(=O)(=O)c1cccc2c(Cl)cccc12)C(=O)N1CCNCC1 [Compound 22, N-(5-chloro-1-naphthalenesulfonyl)-L-valine piperazineamide] | 310 | –
8 | NCCCCCCNC(=O)[C@H](Cc1ccccc1)NS(=O)(=O)c1cccc2c(Cl)cccc12 [Compound 25, N-(5-chloro-1-naphthalenesulfonyl)-L-phenylalanine-1,6-diaminohexaneamide] | – | IC50 (text example, read-out: IC50 (concentration which would bring about an inhibition of 50%)): 67 µM
9 | O=S(=O)(Nc1ccc(-c2ccccc2)cc1)c1cccc2c(Cl)cccc12 [Compound 30, N-biphenyl-5-chloro-1-naphthalenesulfonamide] | 275 | –
10 | O=C([C@H](Cc1ccccc1)NS(=O)(=O)c1cccc2cnccc12)N1CCNCC1 [Compound 31, N-(5-isoquinolinesulfonyl)-L-phenylalanine piperazineamide] | – | IC50 [1]: promotion; inhibition at 100 µM: 70.1%; inhibition at 300 µM (at 300 μM): 54%
11 | NCCCCCCNC(=O)[C@H](Cc1ccccc1)NS(=O)(=O)c1cccc2cnccc12 [Compound 35, N-(5-isoquinolinesulfonyl)-L-phenylalanine-1,6-diaminohexaneamide] | 263 | –
12 | CC(C)[C@H](NS(=O)(=O)c1cccc2cnccc12)C(=O)Nc1ccc(-c2ccccc2)cc1 [Compound 37, N-(5-isoquinolinesulfonyl)-L-valine biphenylamide] | 470 | –
13 | O=C(Nc1ccc(-c2ccccc2)cc1)[C@@H]1CCCN1S(=O)(=O)c1cccc2cnccc12 [Compound 38, N-(5-isoquinolinesulfonyl)-L-proline biphenylamide] | 130 | –
14 | O=C(Nc1ccc(-c2ccccc2)cc1)[C@H]1CCCN1S(=O)(=O)c1cccc2cnccc12 [Compound 40, N-(5-isoquinolinesulfonyl)-D-proline biphenylamide] | 435 | –
15 | O=S(=O)(Nc1ccc(-c2ccccc2)cc1)c1cccc2cnccc12 [Compound 41, N-biphenyl-5-isoquinolinesulfonamide] | – | IC50 [1]: promotion; inhibition at 10 µM (at 10 μM): 31.6%; inhibition at 100 µM: 28.3%
16 | O=S(=O)(Nc1ccccc1)c1cccc2c(Cl)cccc12 [compound 43, reference compound] | 190 | –
